Test results: patent US10566550B2, “Formulation containing an organic semiconductor and a metal complex” (Merck Patent GmbH, priority 2015, dated 2020)
Converted amounts (≈) assume the structure as drawn.

Assay: Solubility of the materials in various solvents at 20° C.
Assay type: physicochemical
Conditions: organic solvent or mixture, thermodynamic from solid
Protocol: For the purposes of this application, the solubility of a material in a solvent is taken to mean the highest material-to-solvent ratio in which the solution at room temperature (at about 20° C.), is clear and stays clear for at least several hours, preferably for at least 5 hours.
The solubility of a material in a solvent is the highest material-to-solvent ratio in which the solution at 20° C. is clear and stays clear for several hours.
The solubility (g/l) is determined according to the following method:
(1) A known amount of the solvent (for example 100 mL) is put in a container
(2) A defined amount of the material is added and the mixture is stirred with a magnetic stirring bar;

[1] = LM8 Toluene:Hexafluorobenzene (7:3)

CC1(C)c2ccccc2-c2ccc(N(c3ccc4c(c3)C3(c5ccccc5-c5ccccc53)c3ccccc3-4)c3ccccc3-c3ccccc3)cc21 [OS6]
solubility (LM1 Anisole:Xylene (2:1)): > 50 mg/mL | solubility (LM2 Anisole): 100 mg/mL (≈ 148 mM) | solubility (LM3 Xylene): 40 mg/mL (≈ 59.2 mM) | solubility (LM5 THF): > 40 mg/mL | solubility (LM6 Toluene:THF (9:1)): > 50 mg/mL | solubility [1]: 30 mg/mL (≈ 44.4 mM) | solubility (LM14 DMF): 10 mg/mL (≈ 14.8 mM) | solubility (LM15 Toluene:DMF (8:2)): 25 mg/mL (≈ 37 mM) | solubility (LM16 DMSO): 10 mg/mL (≈ 14.8 mM) | solubility (LM18 Toluene:Methanol (8:2)): 30 mg/mL (≈ 44.4 mM) | solubility (LM20 Toluene): 60 mg/mL (≈ 88.8 mM)

O=C([O][Bi]([O]C(=O)c1ccc(F)c(F)c1F)[O]C(=O)c1ccc(F)c(F)c1F)c1ccc(F)c(F)c1F [M1]
solubility (LM1 Anisole:Xylene (2:1)): < 7.5 mg/mL | solubility (LM2 Anisole): < 7.5 mg/mL | solubility (LM3 Xylene): < 7.5 mg/mL | solubility (LM4 Chlorobenzene): < 7.5 mg/mL | solubility (LM5 THF): > 100 mg/mL | solubility (LM6 Toluene:THF (9:1)): > 30 mg/mL | solubility (LM7 Hexafluorobenzene): 15 to 20 mg/mL | solubility [1]: 15 mg/mL | solubility (LM9 Meta-difluorobenzene): < 7.5 mg/mL | solubility (LM10 Fluorobenzene): < 7.5 mg/mL | solubility (LM11 Acetonitrile): < 10 mg/mL | solubility (LM12 Benzonitrile): > 20 mg/mL | solubility (LM13 Acetone): > 20 mg/mL | solubility (LM14 DMF): > 40 mg/mL | solubility (LM15 Toluene:DMF (8:2)): 15 mg/mL | solubility (LM16 DMSO): > 20 mg/mL | solubility (LM17 Methanol): > 20 mg/mL | solubility (LM18 Toluene:Methanol (8:2)): 20 mg/mL | solubility (LM19 EGDME): > 20 mg/mL | solubility (LM20 Toluene): < 7.5 mg/mL
